Assays:
[1] = test system: human peripheral blood mononuclear cells (PBMC); assay: PBMC cytotoxicity assay (CellTiter-Glo); type: cell-based; conditions: 2 days, pCC50
How it was run: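 Human PBMC (50,000 cells/well) stimulated with IFN-γ 100 ng/ml and LPS 50 ng/ml were exposed to 11-point 3-fold compound dilutions for 2 days at 37 °C, 5% CO2. Viability read by CellTiter-Glo ATP luminescence and normalized to no-cell and stimulated-DMSO controls. XC50 derived by four-parameter fit.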

[2] = target: indoleamine 2, 3-dioxygenase (IDO1) (Homo sapiens, UniProt P14902); assay: IDO1 PBMC RapidFire MS assay (kynurenine detection by mass spectrometry); type: cell-based; set-up: to induce the expression of indoleamine 2, 3-dioxygenase (IDO1); host or cells: human PBMC stimulated with IFN-gamma and LPS; conditions: human PBMC stimulated with IFN-γ and LPS, 2 days, pIC50, read-out: PBMC PXC50 (converted)
Chain of indoleamine 2, 3-dioxygenase (IDO1) (P14902 whole entry): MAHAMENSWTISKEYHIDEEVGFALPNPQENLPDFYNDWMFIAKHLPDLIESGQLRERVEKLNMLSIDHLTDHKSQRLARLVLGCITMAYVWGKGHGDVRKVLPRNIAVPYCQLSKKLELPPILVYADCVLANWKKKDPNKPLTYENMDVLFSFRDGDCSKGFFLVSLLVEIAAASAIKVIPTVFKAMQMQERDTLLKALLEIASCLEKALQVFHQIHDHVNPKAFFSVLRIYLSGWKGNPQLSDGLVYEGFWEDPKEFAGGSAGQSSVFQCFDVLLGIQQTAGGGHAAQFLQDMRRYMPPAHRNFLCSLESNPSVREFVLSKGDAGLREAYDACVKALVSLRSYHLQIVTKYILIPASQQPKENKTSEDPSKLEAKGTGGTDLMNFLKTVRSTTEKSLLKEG
How it was run: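 PBMCs (50,000 cells/well) stimulated with IFN-γ 100 ng/ml plus LPS 50 ng/ml, treated with 11-point 3-fold compound series for 2 days at 37° C. Supernatant kynurenine measured by RapidFire MS, normalised to internal standard; parallel cytotoxicity by CellTiter-Glo luminescence; curves fitted for XC50.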

Row | IC50 [2] [nM] | SMILES | PBMC TOX PXC50 [1]
1 | 6.31 | CONC(=O)C[C@@H](C)c1ccc(N(CC(C)C)C2CCOCC2)c(Nc2nc(C(F)(F)F)ns2)c1 [Example 106, (R)-3-(4-(Isobutyl(tetrahydro-2H-pyran-4-yl)amino)-3-((3-(trifluoromethyl)-1,2,4-thiadiazol-5-yl)amino)phenyl)-N-methoxybutanamide] | <5
2 | 6.31 | CC(C)CN(c1ccc([C@H](C)CC(=O)NS(C)(=O)=O)cc1Nc1nc(C(F)(F)F)ns1)C1CCOCC1 [Example 107, (R)-3-(4-(Isobutyl(tetrahydro-2H-pyran-4-yl)amino)-3-((3-(trifluoromethyl)-1,2,4-thiadiazol-5-yl)amino)phenyl)-N-(methylsulfonyl)butanamide] | 5.3
3 | 2000 | CC(C)CN(CC(C)C)c1ccc([C@H](C)CC(=O)O)cc1Nc1ccc(=O)n(C)c1 [example 218, (3R)-3-{4-[bis(2-methylpropyl)amino]-3-[(1-methyl-6-oxo-1,6-dihydropyridin-3-yl)amino]phenyl}butanoic acid] | <5
4 | 50.1 | CC(C)CN(CCCCCN)c1ccc([C@H](C)CC(=O)O)cc1Nc1nc(C(F)(F)F)ns1 [example 229, (3R)-3-{4-[(5-aminopentyl)(2-methylpropyl)amino]-3-{[3-(trifluoromethyl)-1,2,4-thiadiazol-5-yl]amino}phenyl}butanoic acid] | <5
5 | 501 | CC(C)CN(c1ccc(C(C)N)cc1Nc1nc(C(F)(F)F)ns1)C1CCOCC1 (stereo not drawn) [example 234, 4-(1-aminoethyl)-N1-(2-methylpropyl)-N1-(oxan-4-yl)-N2-[3-(trifluoromethyl)-1,2,4-thiadiazol-5-yl]benzene-1,2-diamine] | <5
6 | 20 | CC(C)CN(c1ccc(C(C)CC(=O)O)cc1Nc1nncs1)C1CCCCC1 (stereo not drawn) [example 235, 3-{4-[cyclohexyl(2-methylpropyl)amino]-3-[(1,3,4-thiadiazol-2-yl)amino]phenyl}butanoic acid] | <5
7 | 25.1 | CC(C)CN(c1ccc([C@H](C)CC(=O)O)cc1Nc1ccc(C(N)=O)nc1)C1CCOCC1 [example 239, (3R)-3-{3-[(6-carbamoylpyridin-3-yl)amino]-4-[(2-methylpropyl)(oxan-4-yl)amino]phenyl}butanoic acid] | <5
8 | 79.4 | CC(C)CN(c1ccc([C@H](C)CC(=O)O)cc1Nc1ncc(C(F)(F)F)cn1)C1CCOCC1 [example 241, (3R)-3-{4-[(2-methylpropyl)(oxan-4-yl)amino]-3-{[5-(trifluoromethyl)pyrimi-din-2-yl]amino}phenyl}butanoic acid] | <5
9 | 50.1 | CC(C)CN(c1ccc(C(C)CC(=O)O)cc1Nc1nnc(C(=O)N(C)C)s1)C1CCCCC1 (stereo not drawn) [example 244, 3-{4-[cyclohexyl(2-methylpropyl)amino]-3-{[5-(dimethylcarbamoyl)-1,3,4-thiadiazol-2-yl]amino}phenyl}butanoic acid] | 5.7

The remaining lines, values behind:

Row | SMILES | IC50 [2] [nM] | PBMC TOX PXC50 [1]
10 | CC(C)CN(c1ccc([C@H](C)Cc2nnn[nH]2)cc1Nc1nc(C(F)(F)F)ns1)C1CCOCC1 [Example 99, (R)-4-(1-(1H-tetrazol-5-yl)propan-2-yl)-N^1-isobutyl-N^1-(tetrahydro-2H-pyran-4-yl)-N^2-(3-(trifluoromethyl)-1,2,4-thiadiazol-5-yl)benzene-1,2-diamine] | 1.26 | <5
11 | CC(C)CN(c1ccc([C@H](C)Cc2nnn[nH]2)cc1Nc1nc(Cl)ns1)C1CCOCC1 [Example 100, (R)-4-(1-(1H-tetrazol-5-yl)propan-2-yl)-N^2-(3-chloro-1,2,4-thiadiazol-5-yl)-N^1-isobutyl-N^1-(tetrahydro-2H-pyran-4-yl)benzene-1,2-diamine] | 2 | <5
12 | CC(C)CN(c1ccc([C@H](C)CC(=O)NS(=O)(=O)N(C)C)cc1Nc1nc(C(F)(F)F)ns1)C1CCOCC1 [Example 108, (R)—N—(N,N-Dimethylsulfamoyl)-3-(4-(isobutyl(tetrahydro-2H-pyran-4-yl)amino)-3-((3-(trifluoromethyl)-1,2,4-thiadiazol-5-yl)amino)phenyl)butanamide] | 2.51 | <5
13 | CC(C)CN(c1ccc([C@H](C)CC(=O)O)cc1Nc1nc(C(F)(F)F)c[nH]1)C1CCOCC1 [Example 114, (R)-3-(4-(isobutyl(tetrahydro-2H-pyran-4-yl)amino)-3-((4-(trifluoromethyl)-1H-imidazol-2-yl)amino)phenyl)butanoic Acid] | 15.8 | <5
14 | CC(C)CN(CC(C)C)c1ccc([C@H](C)CC(=O)O)cc1Nc1ccc(=O)[nH]c1 [example 217, (3R)-3-{4-[bis(2-methylpropyl)amino]-3-[(6-oxo-1,6-dihydropyridin-3-yl)amino]phenyl}butanoic acid] | 3980 | <5
15 | CC(C)CN(CC(C)C)c1ccc([C@H](C)CC(=O)O)cc1Nc1nc(C(F)(F)F)cn1COCC[Si](C)(C)C [example 220, (3R)-3-{4-[bis(2-methylpropyl)amino]-3-{[4-(trifluoromethyl)-1-{[2-(trimethylsilyl)ethoxy]methyl}-1H-imidazol-2-yl]amino}phenyl}butanoic acid] | 398 | <5
16 | CC(C)CN(c1ccc([C@H](C)CC(=O)O)cc1Nc1n[nH]c(C#N)n1)C1CCOCC1 [example 226, (3R)-3-{3-[(5-cyano-1H-1,2,4-triazol-3-yl)amino]-4-[(2-methylpropyl)(oxan-4-yl)amino]phenyl}butanoic acid] | 126 | <5
17 | CC(C)CN(c1ccc([C@H](C)CC(=O)O)cc1Nc1n[nH]c(C(N)=O)n1)C1CCOCC1 [example 227, (3R)-3-{3-[(5-carbamoyl-1H-1,2,4-triazol-3-yl)amino]-4-[(2-methylpropyl)(oxan-4-yl)amino]phenyl}butanoic acid] | 501 | <5
18 | CC(C)CN(c1ccc([C@H](C)CC(=O)O)cc1Nc1nc(C#N)c[nH]1)C1CCOCC1 [example 228, (3R)-3-{3-[(4 cyano-1H-imidazol-2-yl)amino]-4-[(2-methylpropyl)(oxan-4-yl)amino]phenyl}butanoic acid] | 15.8 | <5
19 | CC(C)CN(c1ccc([C@H](C)CC(=O)O)cc1Nc1nc(C(N)=O)c[nH]1)C1CCOCC1 [example 230, (3R)-3-{3-[(4-carbamoyl-1H-imidazol-2-yl)amino]-4-[(2-methylpropyl)(oxan-4-yl)amino]phenyl}butanoic acid] | 3160 | <5
20 | CC(C)CN(c1ccc([C@H](C)CC(=O)O)cc1Nc1ncc(Cl)cn1)C1CCOCC1 [example 231, (3R)-3-{3-[(5-chloropyrimidin-2-yl)amino]-4-[(2-methylpropyl)(oxan-4-yl)amino]phenyl}butanoic acid] | 25.1 | <5
21 | CNC(=O)c1c[nH]c(Nc2cc([C@H](C)CC(=O)O)ccc2N(CC(C)C)C2CCOCC2)n1 [example 232, (3R)-3-(3-{[4-(methylcarbamoyl)-1H-imidazol-2-yl]amino}-4-[(2-methylpropyl)(oxan-4-yl)amino]phenyl)butanoic acid] | 3160 | <5
22 | CC(C)CN(c1ccc([C@H](C)CC(=O)NO)cc1Nc1nc(C(F)(F)F)ns1)C1CCOCC1 [example 233, (3R)-N-hydroxy-3-{4-[(2-methylpropyl)(oxan-4-yl)amino]-3-{[3-(trifluoromethyl)-1,2,4-thiadiazol-5-yl]amino}phenyl}butanoic amide] | 20 | <5
23 | CC(C)CN(c1ccc([C@H](C)CC(=O)O)cc1Nc1nc(C(=O)NC2CC2)c[nH]1)C1CCOCC1 [example 236, (3R)-3-(3-{[4-(cyclopropylcarbamoyl)-1H-imidazol-2-yl]amino}-4-[(2-methylpropyl)(oxan-4-yl)amino]phenyl)butanoic acid] | > 10000 | <5
24 | CNC(=O)c1n[nH]c(Nc2cc([C@H](C)CC(=O)O)ccc2N(CC(C)C)C2CCOCC2)n1 [example 237, (3R)-3-(3-{[3-(methylcarbamoyl)-1H-1,2,4-triazol-5-yl]amino}-4-[(2-methylpropyl)(oxan-4-yl)amino]phenyl)butanoic acid] | 200 | <5
25 | CC(C)CN(c1ccc(C(C)CC(=O)O)cc1Nc1nnc(C(=O)NC2CC2)s1)C1CCCCC1 (stereo not drawn) [example 238, 3-{4-[cyclohexyl(2-methylpropyl)amino]-3-{[5-(cyclopropylcarbamoyl)-1,3,4-thiadiazol-2-yl]amino}phenyl}butanoic acid] | 20 | <5
26 | CC(C)CN(c1ccc([C@H](C)CC(=O)O)cc1Nc1ccc(C(N)=O)cn1)C1CCOCC1 [example 240, (3R)-3-{3-[(5-carbamoylpyridin-2-yl)amino]-4-[(2-methylpropyl)(oxan-4-yl)amino]phenyl}butanoic acid] | 2510 | <5
27 | CC(C)CN(c1ccc([C@H](C)CC(=O)O)cc1Nc1ncn[nH]1)C1CCOCC1 [example 242, (3R)-3-{4-[(2-methylpropyl)(oxan-4-yl)amino]-3-[(1H-1,2,4-triazol-5-yl)amino]phenyl}butanoic acid] | 398 | <5

Source: patent publication US10899754B2, “Modulators of indoleamine 2,3-dioxygenase” (GLAXOSMITHKLINE INTELLECTUAL PROPERTY DEVELOPMENT LIMITED, priority 2016, dated 2021)
